# Literature values as cited in article PMC4112557 (Bioconjugate Chemistry, 2014).
# Where a SMILES comes first, the peptide text is derived from it.
# Target: PSMA (Homo sapiens, UniProt Q04609)
# Conditions: hydrolysis of NAAG in the amplex red assay
# Sequence of PSMA (Q04609 whole entry): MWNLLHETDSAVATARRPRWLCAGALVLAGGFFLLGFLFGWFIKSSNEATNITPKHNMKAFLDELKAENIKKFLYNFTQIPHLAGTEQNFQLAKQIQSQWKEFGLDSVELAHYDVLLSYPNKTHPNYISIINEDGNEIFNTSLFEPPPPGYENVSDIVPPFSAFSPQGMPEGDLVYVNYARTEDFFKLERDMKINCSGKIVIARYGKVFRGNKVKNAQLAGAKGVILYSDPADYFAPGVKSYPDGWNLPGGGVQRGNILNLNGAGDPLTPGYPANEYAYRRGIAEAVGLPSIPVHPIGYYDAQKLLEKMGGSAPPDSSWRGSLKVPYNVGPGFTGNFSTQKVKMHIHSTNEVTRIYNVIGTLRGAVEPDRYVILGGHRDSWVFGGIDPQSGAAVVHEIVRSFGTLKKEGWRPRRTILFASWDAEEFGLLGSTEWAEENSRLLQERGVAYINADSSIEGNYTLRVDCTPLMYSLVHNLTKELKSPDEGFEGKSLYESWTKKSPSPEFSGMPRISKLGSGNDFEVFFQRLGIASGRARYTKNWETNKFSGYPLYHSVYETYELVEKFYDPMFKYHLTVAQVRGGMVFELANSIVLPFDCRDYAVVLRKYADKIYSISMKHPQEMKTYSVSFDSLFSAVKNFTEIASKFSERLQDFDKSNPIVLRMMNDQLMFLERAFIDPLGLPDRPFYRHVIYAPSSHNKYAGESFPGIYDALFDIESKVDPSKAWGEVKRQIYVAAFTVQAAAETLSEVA
compound,measurement,value
"CC(=O)N[C@@H](CC(=O)O)C(=O)N[C@@H](CCC(=O)O)C(=O)O [NAAG, N-acetylaspartylglutamic acid] (Ac-Asp-Glu-OH)",Km,1.15 µM
